Like-named read-outs stand apart in the source and are kept apart here.
What was measured:
Experiment in all cases: cell-based
[1] = target: T1, CAT1 (cationic amino acid transporter 1, CAT1/SLC7A1) (Homo sapiens, UniProt P30825); set-up: species or system HEK-CAT1 (HEK293 stably transfected); Inhibition of net CAT1-mediated [3H]-ADMA (1 uM) uptake, 2.5 min, scintillation counting, vector control subtracted; conditions: HEK293, ADMA 1 uM as substrate; for inhibition at 20 µM: read-out: % Inhibition of ADMA uptake at 20 µM; for inhibition at 200 µM: read-out: % Inhibition of ADMA uptake at 200 µM
T1 construct: full-length human transporter stably transfected in HEK cells (HEK-CAT1); net uptake against HEK-VC vector control cells
T1 sequence (P30825 whole entry): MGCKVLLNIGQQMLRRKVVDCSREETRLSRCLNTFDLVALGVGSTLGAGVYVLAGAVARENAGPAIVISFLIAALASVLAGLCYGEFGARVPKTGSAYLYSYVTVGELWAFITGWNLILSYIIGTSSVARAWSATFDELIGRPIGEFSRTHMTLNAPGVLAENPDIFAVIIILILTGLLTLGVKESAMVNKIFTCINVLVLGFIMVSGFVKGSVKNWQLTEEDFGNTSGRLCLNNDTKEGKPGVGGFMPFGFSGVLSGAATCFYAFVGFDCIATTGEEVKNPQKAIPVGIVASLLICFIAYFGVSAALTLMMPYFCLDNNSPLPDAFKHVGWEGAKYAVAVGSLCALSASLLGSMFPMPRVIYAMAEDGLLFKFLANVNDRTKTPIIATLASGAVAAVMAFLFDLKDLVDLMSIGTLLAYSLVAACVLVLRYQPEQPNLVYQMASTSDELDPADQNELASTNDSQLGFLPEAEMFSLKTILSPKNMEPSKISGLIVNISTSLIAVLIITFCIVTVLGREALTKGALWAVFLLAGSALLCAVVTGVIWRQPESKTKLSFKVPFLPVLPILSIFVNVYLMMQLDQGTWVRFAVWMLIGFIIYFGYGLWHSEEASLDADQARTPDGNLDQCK
Description: (§1) Uptake and inhibition assays using HEK-CAT1 and HEK-VC cells and L-arginine, L-homoarginine, and ADMA as substrates were performed using the protocol described (Strobel et al. [2012]; Chafai et al. [2017]). Briefly, after incubation, the supernatant was replaced with transport buffer containing [^3H]- L-arginine for 5 min and 2.5 min for medium containing [^3H]-L-homoarginine or [^3H]-ADMA with or without the test compound. The reference drugs were screened at concentrations of 20 µM (Figs. 1A, 2A, and 3A) and 200 µM (Figs. 1B, 2B, and 3B). […] The net uptake was determined by subtracting the total amount taken up by control cells from the amount taken up by CAT1-expressing cells, which was expressed as a percentage of the amount taken up by the control. To determine the inhibitory effects of the drugs on CAT1-mediated transport of L-arginine, L-homoarginine, or ADMA, the control was measured in the absence of the potential inhibitor. The value for the percent inhibition was calculated as: Inhibition (%) = 100 – (V/V0 ^* 100), where V and V0 are the net uptake rates (uptake into HEK-CAT1 cells—uptake into HEK-VC cells) with and without test drugs, respectively. […] Each bar represents the effect of one compound on CAT1-mediated ADMA (1 μM) uptake as percent inhibition. Data were obtained from at least two independent experiments performed in triplicate (n = 6–9) and each test data from the independent experiment were normalized to the respective control data to get the value of percent inhibition. Negative inhibition values indicate stimulated CAT1-mediated uptake. Data were analyzed using one-way ANOVA and Dunnett’s multiple comparison test with p < 0.05. Bars showing a statistically significant inhibition or transport stimulation are shaded in black

[2] = target: T1, CAT1 (cationic amino acid transporter 1, CAT1/SLC7A1); set-up: species or system HEK-CAT1 (HEK293 stably transfected); Inhibition of net CAT1-mediated [3H]-L-arginine (100 uM) uptake, 5 min, scintillation counting, vector control subtracted; conditions: HEK293, L-arginine 100 uM as substrate; for inhibition at 20 µM: read-out: % Inhibition of L-arginine uptake at 20 µM; for inhibition at 200 µM: read-out: % Inhibition of L-arginine uptake at 200 µM
Description: as §1, with “L-arginine (100” for “ADMA (1”

[3] = target: T1, CAT1 (cationic amino acid transporter 1, CAT1/SLC7A1); set-up: species or system HEK-CAT1 (HEK293 stably transfected); Inhibition of net CAT1-mediated [3H]-L-homoarginine (1 uM) uptake, 2.5 min, scintillation counting, vector control subtracted; conditions: HEK293, L-homoarginine 1 uM as substrate; for inhibition at 20 µM: read-out: % Inhibition of L-homoarginine uptake at 20 µM; for inhibition at 200 µM: read-out: % Inhibition of L-homoarginine uptake at 200 µM
Description: as §1, with “CAT1-mediated L-homoarginine” for “CAT1-mediated ADMA”

SMILES	inhibition at 20 µM [1] [%]	inhibition at 200 µM [1] [%]	inhibition at 20 µM [2] [%]	inhibition at 200 µM [2] [%]	inhibition at 20 µM [3] [%]	inhibition at 200 µM [3] [%]
O[C@@H](CNC[C@H](O)[C@H]1CCc2cc(F)ccc2O1)[C@@H]1CCc2cc(F)ccc2O1 (racemic) [Nebivolol]	-2.9 ± 1.7	-6.6 ± 15.4	5.2 ± 3	1.3 ± 2.9	-4.6 ± 1.9	0.3 ± 3.1
Nc1nc(NC2CC2)c2ncn([C@H]3C=C[C@@H](CO)C3)c2n1 [Abacavir]	-4.3 ± 2.2	-78.1 ± 1.9	-0.9 ± 1.81	-12.4 ± 6	-3.1 ± 2	-9.8 ± 1.7
CC(=O)Nc1ccc(O)cc1 [Acetaminophen]	-14.7 ± 3.8	-3.9 ± 3.4	6.6 ± 4.9	2.4 ± 1.6	8.1 ± 4.7	4.4 ± 0.7
CC(=O)Nc1nnc(S(N)(=O)=O)s1 [Acetazolamide]	-1.5 ± 0.9	9.7 ± 1.9	-12.8 ± 12.9	8.9 ± 3.9	-10.9 ± 11.9	8.8 ± 2.1
CC(=O)N[C@@H](CS)C(=O)O [Acetylcysteine]	3.2 ± 3.2	-6.1 ± 4.3	-6.6 ± 3.7	4.6 ± 3.3	-9 ± 1.5	7.5 ± 1.3
Oc1ncnc2[nH]ncc12 [Allopurinol]	16.9 ± 2.6	2 ± 7	5 ± 16.4	14.1 ± 9.6		-2.6 ± 1.6
Cc1nnc2n1-c1ccc(Cl)cc1C(c1ccccc1)=NC2 [Alprazolam]	5.8 ± 3.8	4.1 ± 9.5	-3.9 ± 5.3	8 ± 2.7	-4.3 ± 5.2	9.6 ± 1
NC12CC3CC(CC(C3)C1)C2 [Amantadine]	5.3 ± 3	-5.7 ± 11.1	-14.2 ± 7.4	-76 ± 4.5	11.9 ± 5.6	-19.7 ± 2.6
N=C(N)NC(=O)c1nc(Cl)c(N)nc1N [Amiloride]	1.5 ± 3.2	-17.1 ± 2.3	-0.1 ± 9.7	10.9 ± 3.9	1.5 ± 3.2	12.6 ± 2.6
CN(C)CCC=C1c2ccccc2CCc2ccccc21 [Amitriptyline]	5.6 ± 2.9	-13.4 ± 3	35.9 ± 3.6	26.9 ± 4.7	0.6 ± 1.7	29.7 ± 3.2
CCOC(=O)C1=C(COCCN)NC(C)=C(C(=O)OC)C1c1ccccc1Cl (stereo not drawn) [Amlodipine]	-7.3 ± 1.7	4 ± 9.5	-3.9 ± 5.2	-2.6 ± 3.9	-9.3 ± 3.3	-3.9 ± 4.6
CC1(C)S[C@@H]2[C@H](NC(=O)[C@H](N)c3ccc(O)cc3)C(=O)N2[C@H]1C(=O)O [Amoxicillin]	2.7 ± 5.9	10.2 ± 3.2	14.9 ± 2	5.9 ± 2.9	13.3 ± 1	8.8 ± 1.1
CC1(C)S[C@@H]2[C@H](NC(=O)[C@H](N)c3ccccc3)C(=O)N2[C@H]1C(=O)O [Ampicillin]	20.2 ± 2.8	-4.1 ± 2.8	-2.5 ± 2.7	6.7 ± 1.4	-2.5 ± 2.7	-6.6 ± 3.6
Cc1cc(=O)n(-c2ccccc2)n1C [Antipyrine]	1.9 ± 2.5	-1.2 ± 6.1	-5.1 ± 7.2	-12.7 ± 2.5	-8.2 ± 6	12.8 ± 1.4
CC[C@H]1OC(=O)[C@H](C)[C@@H](O[C@H]2C[C@@](C)(OC)[C@@H](O)[C@H](C)O2)[C@H](C)[C@@H](O[C@@H]2O[C@H](C)C[C@H](N(C)C)[C@H]2O)[C@](C)(O)C[C@@H](C)CN(C)[C@H](C)[C@@H](O)[C@]1(C)O [Azithromycin]	2.8 ± 3.4	12.9 ± 3.7	7 ± 7.2	16.7 ± 5.2	20.8 ± 3.3	26.8 ± 2.3
CCOC(=O)[C@H](CCc1ccccc1)N[C@H]1CCc2ccccc2N(CC(=O)O)C1=O [Benazepril]	28.7 ± 4.6	3.1 ± 3.8	1.1 ± 4.5	2.7 ± 6	1.1 ± 4.5	5.8 ± 2.4
CCc1oc2ccccc2c1C(=O)c1cc(Br)c(O)c(Br)c1 [Benzbromarone]	-6.9 ± 4.6	-13.2 ± 5.9	-12.4 ± 6.1	-31.3 ± 4.9	-10.8 ± 5.3	-23.2 ± 1.6
C[C@]12CC[C@@H]3c4ccc(O)cc4CC[C@H]3[C@@H]1CC[C@@H]2O [Beta estradiol]	-9.8 ± 7.2	-32.9 ± 6.4	0.3 ± 4.5	-19.1 ± 7.2	-0.1 ± 4.2	-13.7 ± 11.3
CC(C)NCC(O)COc1ccc(COCCOC(C)C)cc1 (stereo not drawn) [Bisoprolol]	-2.8 ± 1.6	16.2 ± 4.2	-13.1 ± 0.7	-17.2 ± 15.5	-11.1 ± 1.9	-14.9 ± 2.5
CCC(C)(C)C(=O)O[C@H]1C[C@@H](C)C=C2C=C[C@H](C)[C@H](CC[C@@H]3C[C@@H](O)CC(=O)O3)[C@H]21 [Simvastatin]	-18.1 ± 15	-4.2 ± 3.5	-4.1 ± 0.6	-10.5 ± 3.3		

— article PMC9217908, “Screening of commonly prescribed drugs for effects on the CAT1-mediated transport of L-arginine and arginine derivatives” (Amino Acids, 2022)
